{"source": "patent US20230303564A1", "about": "“PYRIMIDINE RING COMPOUND” (MEDSHINE DISCOVERY INC., priority 2020, published 2023)", "assay_type_in_all_cases": "biochemical", "key": {"[1]": {"molecular_target": "CDK2/CyclinA2 (Homo sapiens (Human), UniProt P24941)", "experiment": "CDK2/CyclinA2 enzyme activity test (ADP-Glo)", "details": "50 μM ATP, 25° C. 60 minutes, read-out: CDK2/Cyclin A2 IC50", "experimental": "CDK2/CyclinA2 Enzyme Reaction System\n(§1) Enzymes, substrates, ATP, and inhibitors were diluted by kinase buffer in the kit. The compounds to be tested were diluted 5-fold with a multi-channel pipette to the eighth concentration, that is, from 50 μM to 0.65 nM, the concentration of DMSO was 5%, and a double-hole experiment was set up. 1 μL of each concentration gradient of inhibitors, 2 μL of CDK2/CyclinA2 enzyme (1.6 ng), 2 μL mixture of substrate and ATP (50 μM ATP, 0.1 μg/μL substrate) were added to the microplates, and the final concentration gradient of the compound was 10 μM to 0.13 nM. The reaction system was reacted at 25° C. for 60 minutes. After the reaction, 5 μL of ADP-Glo reagent was added to each well, the reaction was carried out at 25° C. for 40 minutes, after the reaction was completed, 10 μL of kinase detection reagent was added to each well, the reaction was carried out at 25° C. for 30 minutes, the multiple label analyzer was used to read the chemiluminescence with an integration time of 0.5 seconds\n(§2) The equation (Sample−Min)/(Max−Min)*100% was used to convert the raw data into inhibition rate, and the value of IC50 can be obtained by curve fitting with four parameters (obtained by log (inhibitor) vs. response-Variable slope mode in GraphPad Prism). The enzymatic inhibitory activity of the compounds of the present disclosure on CDK1/CyclinB1, CDK2/CyclinA2, CDK2/CyclinE1, CDK4/CyclinD1, CDK6/CyclinD1, CDK7/CyclinH/MAT1, CDK9/CyclinT1 was provided in Table 1."}, "[2]": {"molecular_target": "CDK6/CyclinD1 (Homo sapiens (Human), UniProt Q00534)", "sequence (Q00534 whole entry)": "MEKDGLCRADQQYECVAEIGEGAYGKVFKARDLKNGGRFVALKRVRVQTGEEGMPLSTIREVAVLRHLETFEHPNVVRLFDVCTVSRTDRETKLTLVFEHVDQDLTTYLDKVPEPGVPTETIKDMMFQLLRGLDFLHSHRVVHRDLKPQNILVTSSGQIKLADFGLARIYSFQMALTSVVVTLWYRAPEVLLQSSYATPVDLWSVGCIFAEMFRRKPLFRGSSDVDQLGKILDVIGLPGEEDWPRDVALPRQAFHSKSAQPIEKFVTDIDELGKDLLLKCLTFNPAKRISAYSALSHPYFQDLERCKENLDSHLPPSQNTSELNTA", "sequence (P24385 whole entry partner)": "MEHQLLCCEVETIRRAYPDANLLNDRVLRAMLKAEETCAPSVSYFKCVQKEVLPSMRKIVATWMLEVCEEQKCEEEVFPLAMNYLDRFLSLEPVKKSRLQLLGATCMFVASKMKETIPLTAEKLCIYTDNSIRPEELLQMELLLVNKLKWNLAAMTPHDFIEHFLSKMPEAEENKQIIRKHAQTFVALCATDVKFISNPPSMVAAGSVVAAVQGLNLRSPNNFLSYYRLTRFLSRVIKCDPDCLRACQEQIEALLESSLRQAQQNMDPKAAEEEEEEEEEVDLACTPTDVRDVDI", "experiment": "CDK6/CyclinD1 enzyme activity test (LANCE Ultra TR-FRET)", "details": "250 μM ATP, 25° C. 120 minutes, read-out: CDK6/Cyclin D1 IC50", "experimental": "CDK6/CyclinD1 Enzyme Reaction System\n(§3) Preparation of Kinase Buffer:\n(§4) The composition of the buffer: 50 mM of hydroxyethylpiperazine ethanesulfonic acid solution at pH 7.5, 1 mM of ethylenediaminetetraacetic acid, 10 mM of magnesium chloride, 0.01% Brij-35, and 2 mM of dithiothreitol.\n(§5) Enzymes, substrate LANCE Ultra ULight™-4E-BP-1(Thr37146) Peptide, ATP, and inhibitors were diluted by kinase buffer.\n(§6) The compounds to be tested were diluted 5-fold with a multi-channel pipette to the eighth concentration, that is, from 40 μM to 0.512 nM, the concentration of DMSO was 4%, and a double-hole experiment was set up. […] The reaction system was reacted at 25° C. for 120 minutes. After the reaction, 5 μL mixture of EDTA and 2× LANCE™ Detection Buffer (1:1) were added to each well, the reaction was carried out at 25° C. for 5 minutes, after the reaction was completed, 5 μL of LANCE Ultra Eu-anti-P-4E-BP1(Thr37MS) (4 nM) was added to each well, the reaction was carried out at 25° C. for 60 minutes, the reaction signal was detected by Nivo instrument according to the principle of time-resolved fluorescence resonance energy transfer.\nas §2"}, "[3]": {"molecular_target": "CDK2/CyclinE1 (Homo sapiens (Human), UniProt P24941)", "experiment": "CDK2/CyclinE1 enzyme activity test (ADP-Glo)", "details": "150 μM ATP, 25° C. 60 minutes, read-out: CDK2/Cyclin E1 IC50", "experimental": "CDK2/CyclinE1 Enzyme Reaction System\nas §1, with “CDK2/CyclinE1” for “CDK2/CyclinA2”, “(2” for “(1.6”, “(150” for “(50”, “seconds.” for “seconds”\nas §2"}, "[4]": {"molecular_target": "CDK1/CyclinB1 (Homo sapiens (Human), UniProt P06493)", "sequence (P06493 whole entry)": "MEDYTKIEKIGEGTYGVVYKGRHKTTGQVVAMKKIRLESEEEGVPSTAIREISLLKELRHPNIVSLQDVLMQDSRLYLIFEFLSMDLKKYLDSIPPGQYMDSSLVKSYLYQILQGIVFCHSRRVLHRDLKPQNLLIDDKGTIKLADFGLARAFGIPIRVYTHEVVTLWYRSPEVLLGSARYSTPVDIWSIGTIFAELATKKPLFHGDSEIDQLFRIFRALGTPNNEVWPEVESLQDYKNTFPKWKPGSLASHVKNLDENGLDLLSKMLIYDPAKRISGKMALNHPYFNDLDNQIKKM", "sequence (P14635 whole entry partner)": "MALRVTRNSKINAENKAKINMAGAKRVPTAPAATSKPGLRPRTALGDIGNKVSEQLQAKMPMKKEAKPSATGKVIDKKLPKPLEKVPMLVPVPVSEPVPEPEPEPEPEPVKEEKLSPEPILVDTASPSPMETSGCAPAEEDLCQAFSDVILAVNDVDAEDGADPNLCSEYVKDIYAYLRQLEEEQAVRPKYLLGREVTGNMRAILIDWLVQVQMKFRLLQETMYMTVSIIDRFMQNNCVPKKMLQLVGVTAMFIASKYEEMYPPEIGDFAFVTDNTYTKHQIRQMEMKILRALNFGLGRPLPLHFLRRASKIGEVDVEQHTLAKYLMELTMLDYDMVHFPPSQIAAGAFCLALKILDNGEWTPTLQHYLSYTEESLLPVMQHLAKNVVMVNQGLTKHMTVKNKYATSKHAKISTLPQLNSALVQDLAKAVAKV", "experiment": "CDK1/CyclinB1 enzyme activity test (ADP-Glo)", "details": "25 μM ATP, 25° C. 120 minutes, read-out: CDK1/Cyclin B IC50", "experimental": "CDK1/CyclinB1 Enzyme Reaction System\nas §1, with “CDK1/CyclinB1” for “CDK2/CyclinA2”, “(12.5” for “(1.6”, “(25” for “(50”, “adenosine triphosphate, 0.2” for “ATP, 0.1”, “120” for “60”, “seconds.” for “seconds”\nas §2"}, "[5]": {"molecular_target": "CDK7/CyclinH/MAT1 (Homo sapiens (Human), UniProt P50613)", "sequence (P50613 whole entry)": "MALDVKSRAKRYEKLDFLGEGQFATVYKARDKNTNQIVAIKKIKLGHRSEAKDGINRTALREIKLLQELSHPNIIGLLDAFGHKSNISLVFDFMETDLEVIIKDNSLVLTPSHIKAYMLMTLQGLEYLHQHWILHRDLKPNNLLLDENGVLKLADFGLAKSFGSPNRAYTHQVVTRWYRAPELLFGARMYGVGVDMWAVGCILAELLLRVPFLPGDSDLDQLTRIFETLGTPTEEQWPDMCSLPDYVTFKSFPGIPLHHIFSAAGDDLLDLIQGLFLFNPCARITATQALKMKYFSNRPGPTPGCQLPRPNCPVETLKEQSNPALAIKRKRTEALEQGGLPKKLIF", "sequence (P51946 whole entry partner)": "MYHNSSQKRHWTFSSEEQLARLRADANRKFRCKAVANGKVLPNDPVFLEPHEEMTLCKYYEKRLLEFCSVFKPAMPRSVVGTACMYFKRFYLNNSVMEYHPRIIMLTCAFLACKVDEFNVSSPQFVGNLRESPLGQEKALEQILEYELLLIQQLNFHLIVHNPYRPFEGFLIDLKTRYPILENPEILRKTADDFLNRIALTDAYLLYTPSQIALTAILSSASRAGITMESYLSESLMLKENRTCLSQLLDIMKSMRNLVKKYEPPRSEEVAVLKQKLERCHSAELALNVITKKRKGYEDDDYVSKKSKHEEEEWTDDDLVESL", "sequence (P51948 whole entry partner)": "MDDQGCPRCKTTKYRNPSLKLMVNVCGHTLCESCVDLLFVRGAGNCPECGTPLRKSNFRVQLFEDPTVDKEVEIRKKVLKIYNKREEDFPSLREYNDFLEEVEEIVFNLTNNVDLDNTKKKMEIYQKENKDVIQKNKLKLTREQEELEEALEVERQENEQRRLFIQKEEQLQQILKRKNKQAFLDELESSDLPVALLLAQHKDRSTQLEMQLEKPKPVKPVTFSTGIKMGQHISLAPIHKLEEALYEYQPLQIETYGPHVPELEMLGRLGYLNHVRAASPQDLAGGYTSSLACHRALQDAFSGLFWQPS", "experiment": "CDK7/CyclinH/MAT1 enzyme activity test (ADP-Glo)", "details": "10 μM ATP, 25° C. 120 minutes, read-out: CDK7/Cyclin H IC50", "protocol": "CDK7/CyclinH/MAT1 Enzyme Reaction System\nEnzymes, substrates (MBP), ATP, and inhibitors were diluted by kinase buffer in the kit. The compounds to be tested were diluted 5-fold with a multi-channel pipette to the eighth concentration, that is, from 50 μM to 0.65 nM, the concentration of DMSO was 5%, and a double-hole experiment was set up. 1 μL of each concentration gradient of inhibitors, 2 μL of CDK7/CyclinH/MAT1 enzyme (20 ng), 2 μL mixture of substrate and ATP (10 μM ATP, 0.1 μg/μL substrate) were added to the microplates, and the final concentration gradient of the compound was 10 μM to 0.13 nM. The reaction system was reacted at 25° C. for 120 minutes. After the reaction, 5 μL of ADP-Glo reagent was added to each well, the reaction was carried out at 25° C. for 40 minutes, after the reaction was completed, 10 μL of kinase detection reagent was added to each well, the reaction was carried out at 25° C. for 30 minutes, the multiple label analyzer was used to read the chemiluminescence with an integration time of 0.5 seconds."}, "[6]": {"molecular_target": "CDK9/CyclinT1 (Homo sapiens (Human), UniProt P50750)", "sequence (P50750 whole entry)": "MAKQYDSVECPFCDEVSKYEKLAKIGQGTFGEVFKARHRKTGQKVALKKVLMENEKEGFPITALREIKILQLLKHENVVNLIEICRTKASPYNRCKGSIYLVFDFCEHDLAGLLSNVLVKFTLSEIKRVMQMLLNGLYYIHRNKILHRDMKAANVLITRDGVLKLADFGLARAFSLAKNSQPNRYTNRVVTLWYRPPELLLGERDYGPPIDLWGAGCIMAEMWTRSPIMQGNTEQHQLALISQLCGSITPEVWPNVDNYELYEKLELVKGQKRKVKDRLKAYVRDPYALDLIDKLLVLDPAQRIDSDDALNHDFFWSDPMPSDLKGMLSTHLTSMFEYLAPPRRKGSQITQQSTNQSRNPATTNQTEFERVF", "sequence (O60563 whole entry partner)": "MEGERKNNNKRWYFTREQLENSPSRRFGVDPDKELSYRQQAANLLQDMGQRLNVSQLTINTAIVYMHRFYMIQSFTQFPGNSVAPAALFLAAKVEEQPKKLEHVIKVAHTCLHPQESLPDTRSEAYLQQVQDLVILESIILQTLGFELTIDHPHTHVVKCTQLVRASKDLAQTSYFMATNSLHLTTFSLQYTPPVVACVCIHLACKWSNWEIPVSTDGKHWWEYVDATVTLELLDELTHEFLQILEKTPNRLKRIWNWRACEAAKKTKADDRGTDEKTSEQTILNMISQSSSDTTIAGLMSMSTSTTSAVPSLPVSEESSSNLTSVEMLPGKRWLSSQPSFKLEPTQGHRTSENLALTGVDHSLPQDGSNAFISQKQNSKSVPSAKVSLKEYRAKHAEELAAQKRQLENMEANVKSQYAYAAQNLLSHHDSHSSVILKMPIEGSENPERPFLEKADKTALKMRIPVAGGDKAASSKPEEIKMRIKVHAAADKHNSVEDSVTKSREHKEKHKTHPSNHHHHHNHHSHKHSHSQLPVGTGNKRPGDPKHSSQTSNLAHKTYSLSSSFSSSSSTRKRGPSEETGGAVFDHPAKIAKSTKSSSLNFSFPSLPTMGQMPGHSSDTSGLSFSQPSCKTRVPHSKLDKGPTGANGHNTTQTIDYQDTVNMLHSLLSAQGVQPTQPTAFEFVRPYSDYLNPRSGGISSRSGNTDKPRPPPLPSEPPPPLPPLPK", "experiment": "CDK9/CyclinT1 enzyme activity test (ADP-Glo)", "details": "100 μM ATP, 25° C. 120 minutes, read-out: CDK 9/Cyclin T1 IC50", "experimental": "CDK9/CyclinT1 Enzyme Reaction System\nas §1, with “of CDK9/CyclinT1” for “of CDK2/CyclinA2”, “enzyme (4” for “enzyme (1.6”, “ATP (100” for “ATP (50”, “ATP, 0.2” for “ATP, 0.1”, “for 120” for “for 60”, “0.5 seconds.” for “0.5 seconds”\nas §2"}, "[7]": {"molecular_target": "CDK4/CyclinD1 (Homo sapiens (Human), UniProt P11802)", "sequence (P11802 whole entry)": "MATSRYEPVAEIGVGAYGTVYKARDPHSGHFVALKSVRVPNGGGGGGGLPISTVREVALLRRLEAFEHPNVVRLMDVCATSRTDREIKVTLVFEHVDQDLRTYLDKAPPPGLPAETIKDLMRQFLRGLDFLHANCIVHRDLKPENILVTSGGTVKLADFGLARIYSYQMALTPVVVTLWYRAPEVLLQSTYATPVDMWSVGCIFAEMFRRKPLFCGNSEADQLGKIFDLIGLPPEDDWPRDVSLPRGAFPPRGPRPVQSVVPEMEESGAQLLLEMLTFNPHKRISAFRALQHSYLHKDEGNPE", "sequence (P24385 whole entry partner)": "as the sequence (P24385 whole entry partner) above", "experiment": "CDK4/CyclinD1 enzyme activity test (LANCE Ultra TR-FRET)", "details": "350 μM ATP, 25° C. 120 minutes, read-out: CDK4/Cyclin D1 IC50", "experimental": "CDK4/CyclinD1 Enzyme Reaction System\nas §3, §4, §5, §6, §2"}}, "note": "pIC50: −log10 of the molar value.", "data": [{"smiles": "Cc1cc2cnc(NC3CCN(S(C)(=O)=O)CC3)nc2c(N[C@@H]2CCC[C@@]2(C)O)n1", "note": "[Compound 8]", "values": [{"measurement": "pIC50", "setting": "[1]", "value": 9.14}, {"measurement": "pIC50", "setting": "[2]", "value": 9.09}, {"measurement": "pIC50", "setting": "[3]", "value": 8.41}, {"measurement": "pIC50", "setting": "[4]", "value": 8.17}, {"measurement": "pIC50", "setting": "[5]", "value": 7.39}, {"measurement": "pIC50", "setting": "[6]", "value": 7.05}, {"measurement": "pIC50", "setting": "[7]", "value": 8.91}]}]}
